According to ChEMBL document CHEMBL1140810, “Conversion of an MMP-potent scaffold to an MMP-selective HER-2 sheddase inhibitor via scaffold hybridization and subtle P1' permutations” (Bioorg Med Chem Lett, 2008):

Experiments:
[1] = target: T1, Disintegrin and metalloproteinase domain-containing protein 10 (Homo sapiens, UniProt O14672); assay: Inhibition of HER2 sheddase in human BT474 cells; assay type: cell-based, BT-474
T1 sequence (O14672 whole entry): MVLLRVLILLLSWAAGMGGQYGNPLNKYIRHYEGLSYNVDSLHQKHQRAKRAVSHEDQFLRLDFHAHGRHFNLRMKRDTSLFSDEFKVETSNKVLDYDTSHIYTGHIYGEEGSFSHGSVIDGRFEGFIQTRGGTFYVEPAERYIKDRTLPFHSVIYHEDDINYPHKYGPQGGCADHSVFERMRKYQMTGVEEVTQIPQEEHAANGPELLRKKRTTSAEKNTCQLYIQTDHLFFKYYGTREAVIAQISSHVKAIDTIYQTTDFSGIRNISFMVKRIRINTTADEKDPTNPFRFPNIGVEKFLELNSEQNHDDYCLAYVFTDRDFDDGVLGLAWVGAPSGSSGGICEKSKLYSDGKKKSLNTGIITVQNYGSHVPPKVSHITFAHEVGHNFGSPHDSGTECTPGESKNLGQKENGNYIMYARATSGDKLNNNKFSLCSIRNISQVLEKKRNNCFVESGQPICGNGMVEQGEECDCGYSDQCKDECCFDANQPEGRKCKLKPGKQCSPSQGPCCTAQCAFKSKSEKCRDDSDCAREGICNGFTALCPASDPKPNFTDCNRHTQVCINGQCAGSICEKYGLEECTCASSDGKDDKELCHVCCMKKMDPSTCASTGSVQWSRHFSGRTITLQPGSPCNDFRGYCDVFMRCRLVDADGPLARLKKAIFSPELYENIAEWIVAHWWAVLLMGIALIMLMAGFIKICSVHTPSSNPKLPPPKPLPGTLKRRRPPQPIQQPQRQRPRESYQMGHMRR

[2] = target: T1, Disintegrin and metalloproteinase domain-containing protein 10
[3] = target: T2, Interstitial collagenase (Homo sapiens, UniProt P03956)
T2 sequence (P03956 whole entry): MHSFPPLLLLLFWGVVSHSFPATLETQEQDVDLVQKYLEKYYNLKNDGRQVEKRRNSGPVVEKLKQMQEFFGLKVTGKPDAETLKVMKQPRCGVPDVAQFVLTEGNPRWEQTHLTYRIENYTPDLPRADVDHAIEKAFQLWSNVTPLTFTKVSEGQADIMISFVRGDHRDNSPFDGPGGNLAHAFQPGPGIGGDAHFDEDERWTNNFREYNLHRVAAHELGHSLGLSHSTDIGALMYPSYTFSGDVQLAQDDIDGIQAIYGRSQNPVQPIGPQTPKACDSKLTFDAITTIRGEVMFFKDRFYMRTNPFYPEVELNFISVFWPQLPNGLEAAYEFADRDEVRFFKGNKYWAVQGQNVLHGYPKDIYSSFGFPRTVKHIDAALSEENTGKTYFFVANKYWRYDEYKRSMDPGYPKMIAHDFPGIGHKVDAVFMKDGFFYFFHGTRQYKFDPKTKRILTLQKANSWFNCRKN

[4] = target: 72 kDa type IV collagenase (Homo sapiens, UniProt P08253)
Chain of 72 kDa type IV collagenase (P08253 whole entry): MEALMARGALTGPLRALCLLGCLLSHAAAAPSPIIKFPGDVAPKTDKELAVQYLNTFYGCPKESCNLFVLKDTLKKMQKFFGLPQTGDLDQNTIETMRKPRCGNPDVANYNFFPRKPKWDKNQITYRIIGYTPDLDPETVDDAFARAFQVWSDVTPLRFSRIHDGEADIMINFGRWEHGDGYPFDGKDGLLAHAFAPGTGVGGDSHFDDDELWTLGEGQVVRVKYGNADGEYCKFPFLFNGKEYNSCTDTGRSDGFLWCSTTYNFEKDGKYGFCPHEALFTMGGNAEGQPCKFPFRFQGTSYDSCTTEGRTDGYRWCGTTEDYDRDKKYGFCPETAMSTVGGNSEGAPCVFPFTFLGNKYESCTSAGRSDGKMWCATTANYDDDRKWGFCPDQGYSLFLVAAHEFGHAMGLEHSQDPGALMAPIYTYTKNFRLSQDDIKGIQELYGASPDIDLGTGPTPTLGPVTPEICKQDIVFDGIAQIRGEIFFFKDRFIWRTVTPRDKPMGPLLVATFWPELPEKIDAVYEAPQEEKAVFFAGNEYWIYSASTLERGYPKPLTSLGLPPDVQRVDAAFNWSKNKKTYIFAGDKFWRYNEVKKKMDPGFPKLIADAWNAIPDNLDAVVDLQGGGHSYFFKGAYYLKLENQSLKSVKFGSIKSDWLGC

[5] = target: Stromelysin-1 (Homo sapiens, UniProt P08254); assay: Inhibition of MMP3
Chain of Stromelysin-1 (P08254 whole entry): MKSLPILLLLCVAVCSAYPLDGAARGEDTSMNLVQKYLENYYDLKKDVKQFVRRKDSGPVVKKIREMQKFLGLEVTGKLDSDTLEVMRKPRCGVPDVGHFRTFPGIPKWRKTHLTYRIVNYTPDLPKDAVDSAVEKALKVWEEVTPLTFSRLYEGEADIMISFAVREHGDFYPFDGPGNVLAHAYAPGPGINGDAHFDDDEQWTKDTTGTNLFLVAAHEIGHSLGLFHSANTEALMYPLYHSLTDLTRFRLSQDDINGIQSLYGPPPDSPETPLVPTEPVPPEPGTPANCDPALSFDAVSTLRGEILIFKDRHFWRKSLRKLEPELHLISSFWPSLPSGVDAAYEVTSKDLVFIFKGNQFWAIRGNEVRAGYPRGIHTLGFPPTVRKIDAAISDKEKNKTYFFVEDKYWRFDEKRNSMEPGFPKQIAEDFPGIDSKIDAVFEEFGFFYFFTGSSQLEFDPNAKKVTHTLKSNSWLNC

[6] = target: Matrix metalloproteinase-9 (Homo sapiens, UniProt P14780); assay: Inhibition of MMP9
Chain of Matrix metalloproteinase-9 (P14780 whole entry): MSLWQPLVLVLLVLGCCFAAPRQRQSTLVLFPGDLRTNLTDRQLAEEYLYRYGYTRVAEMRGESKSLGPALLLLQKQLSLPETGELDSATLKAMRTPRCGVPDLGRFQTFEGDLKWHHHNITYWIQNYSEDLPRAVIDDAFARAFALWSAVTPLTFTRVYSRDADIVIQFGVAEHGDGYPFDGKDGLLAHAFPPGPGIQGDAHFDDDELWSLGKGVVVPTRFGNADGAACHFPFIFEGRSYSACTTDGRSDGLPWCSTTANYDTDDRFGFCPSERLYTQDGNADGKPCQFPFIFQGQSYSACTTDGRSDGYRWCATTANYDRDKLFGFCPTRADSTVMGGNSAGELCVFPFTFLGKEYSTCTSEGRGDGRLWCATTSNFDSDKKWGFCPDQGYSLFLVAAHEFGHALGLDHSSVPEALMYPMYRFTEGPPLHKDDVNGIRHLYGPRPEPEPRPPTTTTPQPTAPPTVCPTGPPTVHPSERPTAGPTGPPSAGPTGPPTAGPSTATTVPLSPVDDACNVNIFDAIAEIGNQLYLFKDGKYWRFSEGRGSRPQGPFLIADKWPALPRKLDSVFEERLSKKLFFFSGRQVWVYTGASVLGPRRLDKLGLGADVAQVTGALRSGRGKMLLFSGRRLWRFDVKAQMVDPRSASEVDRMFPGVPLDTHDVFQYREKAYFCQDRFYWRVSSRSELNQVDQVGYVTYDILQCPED

Molecule `O=C(O[C@H]1CCOC1)N1CCC(CS(=O)(=O)N2CC=C(c3ccccc3)CC2)(C(=O)NO)CC1` has an IC50 [1] of 0.0071 µM, an IC50 [2] of 0.01 µM and an IC50 [3] of 0.259 µM. For the same molecule, the IC50 [4] was 0.004 µM, the IC50 [5] was 0.237 µM and the IC50 [6] was 0.025 µM.

Molecule `Cc1ccccc1N1CCN(S(=O)(=O)CC2(C(=O)NO)CCN(C(=O)O[C@H]3CCOC3)CC2)CC1` has an IC50 [1] of 0.217 µM, an IC50 [2] of 0.107 µM and an IC50 [4] greater than 2 µM.

For `Cc1cc(C#N)ccc1C1=CCN(S(=O)(=O)CC2(C(=O)NO)CCN(C(=O)O[C@H]3CCOC3)CC2)CC1`, the IC50 [1] was 0.045 µM, the IC50 [2] was 0.107 µM and the IC50 [4] was 1.56 µM.

For `Cc1ccccc1C1=CCN(S(=O)(=O)CC2(C(=O)NO)CCN(C(=O)O[C@H]3CCOC3)CC2)CC1`, the IC50 [1] was 0.133 µM, the IC50 [2] was 0.018 µM and the IC50 [4] was 2 µM.

`Cc1cc(C#N)ccc1N1CCN(S(=O)(=O)CC2(C(=O)NO)CCN(C(=O)O[C@H]3CCOC3)CC2)CC1` showed an IC50 [1] of 0.025 µM, an IC50 [2] of 0.026 µM and an IC50 [3] greater than 5 µM. It also gave an IC50 [4] greater than 5 µM, an IC50 [5] greater than 5 µM and an IC50 [6] greater than 5 µM.

Work on `Cc1ccccc1C1CCN(S(=O)(=O)CC2(C(=O)NO)CCN(C(=O)OC3CCNC3)CC2)CC1` (configuration not stated) yielded an IC50 [1] of 0.016 µM, an IC50 [2] of 0.018 µM and an IC50 [3] greater than 5 µM. For the same molecule, the IC50 [4] was 0.546 µM.

`O=C(O[C@H]1CCOC1)N1CCC(CS(=O)(=O)N2CCC(c3ccccc3F)CC2)(C(=O)NO)CC1` was tested, and the IC50 [1] was 0.076 µM, the IC50 [2] was 0.044 µM and the IC50 [3] was greater than 5 µM. It also gave an IC50 [4] of 0.135 µM, an IC50 [5] of 0.942 µM and an IC50 [6] of 0.1 µM.

Molecule `N#Cc1ccccc1C1CCN(S(=O)(=O)CC2(C(=O)NO)CCN(C(=O)O[C@H]3CCOC3)CC2)CC1` has an IC50 [1] greater than 1 µM, an IC50 [2] greater than 2 µM and an IC50 [4] greater than 2 µM.

Work on `Cc1ccccc1C1CCN(S(=O)(=O)CC2(C(=O)NO)CCN(C(=O)OC[C@@H]3CCCN3)CC2)CC1` yielded an IC50 [1] of 0.023 µM, an IC50 [2] of 0.034 µM and an IC50 [3] greater than 5 µM. It also gave an IC50 [4] greater than 2 µM.

`Cc1ccccc1C1CCN(S(=O)(=O)CC2(C(=O)NO)CCN(C(=O)OC[C@H]3CCCN3)CC2)CC1` showed an IC50 [1] of 0.03 µM, an IC50 [2] of 0.019 µM and an IC50 [3] greater than 5 µM. For the same molecule, the IC50 [4] was greater than 2 µM.

For `Cc1cc(C#N)ccc1C1CCN(S(=O)(=O)CC2(C(=O)NO)CCN(C(=O)OC[C@@H]3CCCN3)CC2)CC1`, the IC50 [1] was 0.0065 µM, the IC50 [2] was 0.0091 µM and the IC50 [3] was greater than 5 µM. For the same molecule, the IC50 [4] was 1.27 µM.

`Cc1ccccc1C1CCN(S(=O)(=O)CC2(C(=O)NO)CCN(C(=O)O[C@H]3CCOC3)CC2)CC1` showed an IC50 [1] of 0.041 µM, an IC50 [2] of 0.018 µM and an IC50 [3] greater than 5 µM. The IC50 [4] was greater than 2 µM, the IC50 [5] was greater than 5 µM and the IC50 [6] was greater than 5 µM.

`Cc1cc(C#N)ccc1C1CCN(S(=O)(=O)CC2(C(=O)NO)CCN(C(=O)OC[C@H]3CCCN3)CC2)CC1` was tested, and the IC50 [1] was 0.023 µM, the IC50 [2] was 0.011 µM and the IC50 [3] was greater than 5 µM. For the same molecule, the IC50 [4] was 1.38 µM.

`Cc1cc(C(=O)N(C)C)ccc1C1CCN(S(=O)(=O)CC2(C(=O)NO)CCN(C(=O)O[C@H]3CCOC3)CC2)CC1` showed an IC50 [1] greater than 1 µM, an IC50 [2] greater than 2 µM and an IC50 [4] of 0.655 µM.

`Cc1cc(C#N)ccc1C1=CCN(S(=O)(=O)CC2(C(=O)NO)CCN(C(=O)OC[C@@H]3CCCN3)CC2)CC1` showed an IC50 [1] of 0.027 µM, an IC50 [2] of 0.034 µM and an IC50 [3] greater than 5 µM. The IC50 [4] was greater than 2 µM.

`Cc1cc(C#N)ccc1C1CCN(S(=O)(=O)CC2(C(=O)NO)CCN(C(=O)O[C@H]3CCOC3)CC2)CC1` gave an IC50 [1] of 0.014 µM, an IC50 [2] of 0.012 µM and an IC50 [3] greater than 5 µM. For the same molecule, the IC50 [4] was 2 µM, the IC50 [5] was greater than 5 µM and the IC50 [6] was greater than 5 µM.

`N#Cc1ccc(C2CCN(S(=O)(=O)CC3(C(=O)NO)CCN(C(=O)O[C@H]4CCOC4)CC3)CC2)cc1` showed an IC50 [1] of 0.077 µM, an IC50 [2] of 0.039 µM and an IC50 [4] of 0.009 µM.

`Cc1cc(C2CCN(S(=O)(=O)CC3(C(=O)NO)CCN(C(=O)O[C@H]4CCOC4)CC3)CC2)cc(C)c1C#N` showed an IC50 [1] of 0.096 µM, an IC50 [2] of 0.057 µM and an IC50 [3] greater than 5 µM. For the same molecule, the IC50 [4] was 0.126 µM, the IC50 [5] was 0.756 µM and the IC50 [6] was 0.535 µM.

`Cc1ccccc1C1CCN(S(=O)(=O)CC2(C(=O)NO)CCN(C(=O)OC3(C)CCOC3)CC2)CC1` (configuration not stated) showed an IC50 [1] of 0.036 µM, an IC50 [2] of 0.011 µM and an IC50 [3] greater than 5 µM. The IC50 [4] was 0.564 µM.

`O=C(O[C@H]1CCOC1)N1CCC(CS(=O)(=O)N2CC=C(c3ccccc3)C2)(C(=O)NO)CC1` showed an IC50 [1] of 0.102 µM, an IC50 [2] of 0.332 µM and an IC50 [4] of 0.052 µM.

With `Cc1cc(C)cc(C2CCN(S(=O)(=O)CC3(C(=O)NO)CCN(C(=O)O[C@H]4CCOC4)CC3)CC2)c1` the IC50 [1] was 0.833 µM, the IC50 [2] was 0.286 µM and the IC50 [3] was greater than 5 µM. For the same molecule, the IC50 [4] was 0.315 µM, the IC50 [5] was 2.16 µM and the IC50 [6] was 0.955 µM.

Work on `O=C(O[C@H]1CCOC1)N1CCC(CS(=O)(=O)N2CCC(c3ccccc3)C2)(C(=O)NO)CC1` (some centres not stated) yielded an IC50 [1] of 0.358 µM, an IC50 [2] of 0.261 µM and an IC50 [4] of 0.549 µM.

`C#CCN1CCC(CS(=O)(=O)c2ccc(Oc3ccccc3)cc2)(C(=O)NO)CC1` gave an IC50 [3] of 8.66 µM, an IC50 [4] of less than 0.0015 µM and an IC50 [5] of less than 0.0015 µM. For the same molecule, the IC50 [6] was less than 0.0015 µM.

For `Cc1cc(C#N)ccc1C1=CCN(S(=O)(=O)CC2(C(=O)NO)CCN(C(=O)OC[C@H]3CCCN3)CC2)CC1`, the IC50 [1] was 0.019 µM, the IC50 [2] was 0.024 µM and the IC50 [3] was greater than 5 µM. For the same molecule, the IC50 [4] was greater than 2 µM.

`O=C(O[C@H]1CCOC1)N1CCC(CS(=O)(=O)N2CCN(c3ccccc3)CC2)(C(=O)NO)CC1` was tested, and the IC50 [1] was 0.013 µM, the IC50 [2] was 0.015 µM and the IC50 [3] was 0.774 µM. For the same molecule, the IC50 [4] was 0.013 µM, the IC50 [5] was 0.925 µM and the IC50 [6] was 0.078 µM.

`Cc1cc(C#N)ccc1C1CCN(S(=O)(=O)CC2(C(=O)NO)CCN(C(=O)OC3CCNC3)CC2)CC1` (configuration not stated) was tested, and the IC50 [1] was 0.013 µM, the IC50 [2] was 0.0078 µM and the IC50 [3] was greater than 5 µM. For the same molecule, the IC50 [4] was greater than 2 µM.

Work on `O=C(O[C@H]1CCOC1)N1CCC(CS(=O)(=O)N2CCC(c3ccccc3)CC2)(C(=O)NO)CC1` yielded an IC50 [1] of 0.022 µM, an IC50 [2] of 0.028 µM and an IC50 [3] of 0.753 µM. For the same molecule, the IC50 [4] was 0.018 µM, the IC50 [5] was 0.366 µM and the IC50 [6] was 0.022 µM.

`O=C(O[C@H]1CCOC1)N1CCC(CS(=O)(=O)N2CCC(c3ccccc3C(F)(F)F)CC2)(C(=O)NO)CC1` was tested, and the IC50 [1] was greater than 1 µM, the IC50 [2] was 1.04 µM and the IC50 [4] was greater than 2 µM.

In the case of `Cc1ccccc1C1CCN(S(=O)(=O)CC2(C(=O)NO)CCN(C(=O)OC3COCC3(C)C)CC2)CC1` (configuration not stated), the IC50 [1] is reported as 0.014 µM, the IC50 [2] is reported as 0.022 µM and the IC50 [3] is reported as greater than 5 µM. The IC50 [4] was 0.574 µM.

For `Cc1cc(F)ccc1C1CCN(S(=O)(=O)CC2(C(=O)NO)CCN(C(=O)O[C@H]3CCOC3)CC2)CC1`, the IC50 [1] was 0.141 µM, the IC50 [2] was 0.092 µM and the IC50 [4] was greater than 2 µM.

`Cc1ccccc1C1CCN(S(=O)(=O)CC2(C(=O)NO)CCN(C(=O)OC3CCCC3O)CC2)CC1` (trans isomer) was tested, and the IC50 [1] was 0.0062 µM, the IC50 [2] was 0.016 µM and the IC50 [3] was 5 µM. It also gave an IC50 [4] of 0.537 µM.
